ChEMBL document CHEMBL5126496, “A novel compound active against SARS-CoV-2 targeting uridylate-specific endoribonuclease (NendoU/NSP15): in silico and in vitro investigations” (RSC Med Chem, 2021)

Assays:
[1] = tested on: Vero; assay: Cytotoxicity against African green monkey Vero cells at 50 uM; format: toxicity, cell-based; conditions: chlorocebus sabaeus
[2] = tested on: SARS-CoV-2; assay: Antiviral activity against SARS-CoV-2 MT020880 infected in African green monkey Vero cells measured after 48 hrs by spread assay; format: functional, organism-based, Severe acute respiratory syndrome coronavirus 2
[3] = tested on: SARS-CoV-2; assay: Antiviral activity against SARS-CoV-2 MT020880 infected in African green monkey Vero cells assessed as inhibition of viral entry preincubated for 1 hr at 10 uM; format: functional
[4] = tested on: SARS-CoV-2; assay: Antiviral activity against SARS-CoV-2 MT020880 infected in African green monkey Vero cells assessed as inhibition of viral entry preincubated for 1 hr; format: functional, organism-based, Severe acute respiratory syndrome coronavirus 2
[5] = Severe acute respiratory syndrome coronavirus 2, MT020880, Vero

`CC(C)(C)c1ccc(CN2CCN(C[C@H](O)[C@@H](N)Cc3ccccc3)CC2)cc1` was tested, and the Activity [1] was “Non-Toxic”, the IC50 ([2]; Severe acute respiratory syndrome coronavirus 2, MT020880, Vero, 48 h) was 8.46 µM and the inhibition at 10 µM [3, 5] was 90%. For the same compound, the IC50 [4, 5] was 7.28 µM.
In the case of IVERMECTIN [listing 1 of 2 here], the Activity [1] is reported as “Toxic”, the IC50 ([2]; vero) is reported as 5.53 µM and the IC50 ([4]; vero) is reported as 4.97 µM.
IVERMECTIN [listing 2 of 2 here] gave an inhibition ([3]; Severe acute respiratory syndrome coronavirus 2) of 90%.
